Laboratory results taken from US12478090B2, “Aerosolizable formulation” (NICOVENTURES TRADING LIMITED, priority 2018, dated 2025).
“Also recorded” adds a separate entry of the source.

How the values were obtained:
[1] = Diffusion-Ordered NMR Spectroscopy (DOSY): diffusion coefficient and residence time within cyclodextrin; assay type: physicochemical; details: for residency time within 2-hydroxy-propyl-β-cyclodextrin: inferred from DOSY NMR diffusion, Formulations 1 and 2 and spiked ratios 1:4:1 / 1:4:1:1
Description: The interaction between cyclodextrin and menthol and cyclodextrin and nicotine (unprotonated and monoprotonated) was assessed using NMR spectroscopy. The study was conducted on formulations containing
Formulation 1-90.0% (w/w) water, 0.9% (w/w) 1-menthol, 9% (w/w) 2-hydroxy-propyl-β-cyclodextrin, and 0.1% (w/w) nicotine.
Formulation 2-89.9% (w/w) water, 0.9% (w/w) 1-menthol, 9% (w/w) 2-hydroxy-propyl-β-cyclodextrin, 0.1% (w/w) nicotine and 0.1% (w/w) citric acid.
During the NMR studies the assessment of the diffusion coefficient and subsequent residence times of monoprotonated nicotine, unprotonated nicotine, menthol within 2-hydroxy-propyl-β-cyclodextrin. The diffusion coefficient and subsequent residence times were studied as they are understood to provide a qualitative assessment of the degree of interaction of the compound with the complexing agent with each of the components studied. It is understood that encapsulation is not a static state but a dynamic one in which materials are encapsulated (e.g. complexed or bound to an encapsulating agent) for a period of time before release after which they may be subsequently encapsulated. Therefore, decreased residence time indicates decreased interaction with the complexing agent.
Diffusion-Ordered NMR Spectroscopy (DOSY) experiments were selected as suitable for assessment of diffusion times of nicotine and menthol solutions of individual constituents, in the formulation describe above and formulations with spike components to vary the ratios of constituents (nicotine: 2-hydroxy-propyl-β-cyclodextrin:menthol=1:4:1 and nicotine: 2-hydroxy-propyl-β-cyclodextrin:menthol:citric acid=1:4:1:1 molar ratios).

[2] = nicotinium citrate gel added in place of nicotine; no heating or filtration steps
[3] = compared to base cyclodextrins such as β-cyclodextrin; cited from earlier work

CN1CCC[C@H]1c1cccnc1 [unprotonated nicotine]
residency time within 2-hydroxy-propyl-β-cyclodextrin [1]: higher residence within 2-hydroxy-propyl-β-cyclodextrin than mono-protonated nicotine; also recorded: mono-protonated nicotine<unprotonated nicotine<menthol

CN1CCC[C@H]1c1cccnc1 [monoprotonated nicotine]
diffusion coefficient ([1]; DOSY NMR, aqueous formulation with menthol and 2-hydroxy-propyl-β-cyclodextrin, with vs without citric acid): faster diffusion coefficient compared to the nicotine without citric acid
residency time within 2-hydroxy-propyl-β-cyclodextrin ([1]; listed as mono-protonated nicotine): mono-protonated nicotine<unprotonated nicotine<menthol

CN1CCCC1c1cccnc1.O=C(O)CC(O)(CC(=O)O)C(=O)O [nicotinium citrate]
visual precipitate in formulation [2]: lack of any visual precipitate

CC1CCC(C(C)C)C(O)C1 (stereo not drawn) [menthol]
residency time within 2-hydroxy-propyl-β-cyclodextrin [1]: higher than that of nicotine in both its monoprotonated and unprotonated form; also recorded: mono-protonated nicotine<unprotonated nicotine<menthol

2-hydroxy-propyl-β-cyclodextrin
solubility in water [3]: increased solubility in water
